This passage reports IC50 results from ChEMBL document CHEMBL1139208, “An efficient and stereoselective dearylation of asarinin and sesamin tetrahydrofurofuran lignans to acuminatolide by methyltrioxorhenium/H(2)O(2) and UHP systems” (J Nat Prod, 2007).

This test relates to NIH3T3. Nature of the test: Cytotoxicity against murine 3T3 cells by MTT assay. The class given is cell-based. The following applies: Mus musculus. (In general: Tetrazolium dyes change colour on reduction, which living cells bring about.)
As to `O=C(O)[C@H]1CO[C@@H](c2ccc3c(c2)OCO3)[C@H]1CO`, inhibition was half-maximal at 3000 nM (IC50).

On to `O=C1OC[C@H]2[C@@H]1CO[C@H]2c1ccc2c(c1)OCO2`, for which the IC50 – broadly, the concentration at which inhibition is half-maximal – is > 20000 nM.

`O=C1OC[C@H]2[C@@H]1CO[C@@H]2c1ccc2c(c1)OCO2`: the IC50 is > 20000 nM.

`c1cc2c(cc1[C@H]1OC[C@H]3[C@@H]1CO[C@H]3c1ccc3c(c1)OCO3)OCO2` [ASARININ] yielded an IC50 of 200 nM.
